According to patent US20260318918A1, “CANCER DIAGNOSTICS AND TREATMENT BY MEANS OF PRMT5 INHIBITOR” (ARGONAUT THERAPEUTICS LIMITED, priority 2022, published 2026):

Columns and labels:
Type in all cases: cell-based
[1] = tested on: T-47D cell line (breast cancer); experiment: MTT cell viability assay, T-47D (breast cancer), CRISPR knock-out; conditions: 8 days; for sensitivity to PRMT5 inhibition (cell viability) of cells lacking E2F1: E2F1 deleted by CRISPR; for sensitivity to PRMT5 inhibition (cell viability) of cells lacking pRb: pRb deleted by CRISPR
Description: (§1) T-47D cells were maintained in growth medium (RPMI 1640 supplemented with 10% v/v heat inactivated fetal bovine serum and cultured at 37° C., 5% CO2, U2OS, MCF7 and HCT116 cells were maintained in growth medium (DMEM supplemented with 10% v/v heat inactivated fetal bovine serum) and cultured at 37° C., 5% CO2. Under assay conditions, cells were incubated in assay medium (RPMI 1640 or […] supplemented with 10% v/v heat inactivated fetal bovine serum and 100 units/mL penicillin-streptomycin) at 37° C. under 5% CO2. For the assessment of the effect of compounds on the proliferation of the cancer cell lines, exponentially growing cells were plated into 96-well plates overnight at a density of 1,000 cells/well in a final volume of 100 μl of cell growth medium. The next day the cells were dosed with compounds (T-992, GSK3326595, LLY-283, PF-06939999 and JNJ64619178) (quadruplicate ten-point 5-fold serial dilutions in DMSO), beginning at 100 μM. After addition of compounds, assay plates were incubated for 8 days at 37° C., 5% CO2, relative humidity 90%. NAD(P)H-dependent cellular oxidoreductase enzyme activity was measured by adding 100 μl thiazolyl blue tetrazolium bromide (MTT: Sigma-Aldrich) to the wells at a final concentration of 5 μM and incubated for 2 h at 37° C. Next, media was discarded from the wells and the formazan crystals were dissolved in 100 μl DMSO by shaking for 15 min. Absorbance was read on the Omega FLUOstar plate reader (BMG Labtech Ltd, Ortenberg, Germany) at a wavelength of 584 nm. Data were analysed and IC50 values determined using MARs data analysis software (BMG Labtech Ltd, Ortenberg, Germany). The concentration of compound inhibiting cell viability by 50% was determined using a 4-parametric fit of the normalized dose response curves.
(§2) pSpCas9(BB)-2A-Puro (Addgene plasmid ID: 48139) was used for the generation of E2F1 and pRb knock out cell lines using CRISPR-Cas9 technology. Cell lines were generated as detailed in (Ran et al., 2013).

[2] = tested on: HCT116 cell line (colorectal cancer); experiment: MTT cell viability assay, HCT116 (colorectal cancer), CRISPR knock-out; conditions: E2F1 deleted by CRISPR, 8 days
Description: as §1, §2

[3] = tested on: U20S cell line (bone cancer); experiment: MTT cell viability assay, U20S (bone cancer), CRISPR knock-out; conditions: pRb deleted by CRISPR, 8 days
Description: as §1, with “The next day the cells were dosed with compounds (T-992, GSK3326595, LLY-283, PF-06939999 and JNJ64619178) (quadruplicate ten-point 5-fold serial dilutions in DMSO), beginning at 100 μM. After addition of compounds, assay plates were incubated for 8 days at 37° C., 5% CO2, relative humidity 90%.” left out, “Next, media was discarded from the wells and the formazan crystals were dissolved in 100 μl DMSO by shaking for 15 min.” left out, “curves. […]” for “curves.”

SMILES	sensitivity to PRMT5 inhibition (cell viability) of cells lacking E2F1 [1]	sensitivity to PRMT5 inhibition (cell viability) of cells lacking pRb [1]	sensitivity to PRMT5 inhibition (cell viability) of cells lacking E2F1 [2]	sensitivity to PRMT5 inhibition (cell viability) of cells lacking pRb [3]
O[C@@H]1CO[C@H]2[C@@H]1OC[C@@H]2O [AT101]	less sensitive	more sensitive	less sensitive	more sensitive
Nc1nc2cc(CC[C@H]3C[C@@H](n4ccc5c(N)ncnc54)[C@H](O)[C@@H]3O)ccc2cc1Br [JNJ64619178]	less sensitive		less sensitive	
Nc1ncnc2c1ccn2[C@@H]1O[C@H]([C@H](O)c2ccccc2)[C@@H](O)[C@H]1O [LLY-283]	less sensitive		less sensitive	
Cc1ncnc2c1ccn2[C@@H]1C[C@H](Oc2cc(C(F)F)c(F)c3c2CNCC3)[C@@H](O)[C@H]1O [PF06939999]	less sensitive	more sensitive	less sensitive	
CC(=O)N1CCC(Nc2cc(C(=O)NC[C@H](O)CN3CCc4ccccc4C3)ncn2)CC1 [GSK3326595]	less sensitive	more sensitive	less sensitive	
